Values joined by “and” are separate entries in the source; they are usually repeats but may differ in a detail not shown here. Identical values can stand only once. Toxic doses and inconclusive results are not listed.

The test system of the assay is P388 leukemia ip, CD2F1 mice, survival T/C. Kind of assay: NCI In Vivo Anticancer Drug Screen. Data for tumor model P388 Leukemia (intraperitoneal) in CD2F1 (CDF1) mice. The conditions noted are these: endpoint: median survival time, higher = longer survival. Put shortly:
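Mice carrying the transplanted tumor received test compound or vehicle. Survival was recorded in each group, and the value is the treated-group measurement divided by that of the vehicle-treated control group.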

The mark [1] stands for this setting: dose: 50.0 mg/kg/injection, schedule: Q01DX009 (ip), vehicle: Klucel (hydroxypropylcellulose) (HPC).
[2] abbreviates: dose: 100.0 mg/kg/injection, schedule: Q01DX001 (ip), vehicle: Klucel (hydroxypropylcellulose) (HPC).
Setting [3] is: dose: 50.0 mg/kg/injection, schedule: Q01DX005 (ip), vehicle: Klucel (hydroxypropylcellulose) (HPC).
Where [4] appears, read: dose: 100.0 mg/kg/injection, schedule: Q01DX005 (ip), vehicle: Klucel (hydroxypropylcellulose) (HPC).
[5] abbreviates: dose: 200.0 mg/kg/injection, schedule: Q01DX005 (ip), vehicle: Klucel (hydroxypropylcellulose) (HPC).
Where [6] appears, read: dose: 100.0 mg/kg/injection, schedule: Q01DX009 (ip), vehicle: Klucel (hydroxypropylcellulose) (HPC).
Where [7] appears, read: dose: 200.0 mg/kg/injection, schedule: Q01DX009 (ip), vehicle: Klucel (hydroxypropylcellulose) (HPC).
Where [8] appears, read: dose: 50.0 mg/kg/injection, schedule: Q01DX009 (ip), vehicle: saline.
Setting [9] is: dose: 100.0 mg/kg/injection, schedule: Q01DX009 (ip), vehicle: saline.
[10] abbreviates: dose: 200.0 mg/kg/injection, schedule: Q01DX009 (ip), vehicle: saline.
[11] abbreviates: dose: 60.0 mg/kg/injection, schedule: Q01DX005 (ip), vehicle: saline with Tween-80.
Setting [12] is: dose: 120.0 mg/kg/injection, schedule: Q01DX005 (ip), vehicle: saline with Tween-80.
Where [13] appears, read: dose: 240.0 mg/kg/injection, schedule: Q01DX005 (ip), vehicle: saline with Tween-80.

Turning to `CC(N=Cc1ccccc1O)c1ccccc1.[CH-]=C([CH2-])C(C)(C)C.[Pd+2]` (stereo not given), the T/C was 108 % of control (dose: 6.25 mg/kg/injection, schedule: Q04DX003 (ip), vehicle: Klucel (hydroxypropylcellulose) (HPC)); 93 % of control (dose: 12.5 mg/kg/injection, schedule: Q04DX003 (ip), vehicle: Klucel (hydroxypropylcellulose) (HPC)); 92 % of control (dose: 25.0 mg/kg/injection, schedule: Q04DX003 (ip), vehicle: Klucel (hydroxypropylcellulose) (HPC)).
For `CSc1cccc(NC(=O)Nc2onc(C)c2C)c1`, under setting [1], the T/C is 91 % of control.
Take `CC(C)CNC(=O)C(=O)NCC(C)C`: the T/C is, setting by setting: (dose: 25.0 mg/kg/injection, schedule: Q01DX001 (ip), vehicle: Klucel (hydroxypropylcellulose) (HPC)) 98 % of control; (dose: 50.0 mg/kg/injection, schedule: Q01DX001 (ip), vehicle: Klucel (hydroxypropylcellulose) (HPC)) 101 % of control; under setting [2], 101 % of control.
Consider `O=C(NCc1ccco1)Nc1ccccc1[N+](=O)[O-]`, for which the T/C runs as follows: under setting [3], 96 % of control; under setting [4], 95 % of control; under setting [5], 95 % of control.
As to `N#CC1C(=O)NC(=O)C(C#N)C1c1ccc(Cl)cc1` (stereo not given), the T/C runs as follows: under setting [1], 101 % of control; under setting [6], 100 % of control; under setting [7], 101 % of control.
Consider `CC(C)N1C(Nc2ccccn2)C(C)(C)C(C)(C)C1Nc1ccccn1` (stereo not given), for which the T/C (dose: 30.0 mg/kg/injection, schedule: Q01DX005 (ip), vehicle: Klucel (hydroxypropylcellulose) (HPC)) was 121 % of control; the T/C (dose: 240.0 mg/kg/injection, schedule: Q01DX005 (ip), vehicle: Klucel (hydroxypropylcellulose) (HPC)) was 151 % of control and 164 % of control.
As to `CCN1C(=O)c2ccccc2C1=O`, the T/C under setting [8] is 101 % of control, the T/C under setting [9] is 90 % of control and the T/C under setting [10] is 110 % of control.
Turning to `C=CC#N`, the T/C by setting is: (dose: 50.0 mg/kg/injection, schedule: Q01DX009 (ip), vehicle: saline with Tween-80) 99 % of control; (dose: 100.0 mg/kg/injection, schedule: Q01DX009 (ip), vehicle: saline with Tween-80) 95 % of control; (dose: 200.0 mg/kg/injection, schedule: Q01DX009 (ip), vehicle: saline with Tween-80) 90 % of control.
Take `CC(C)CC1N=C(N(C)N=O)OP1(=O)NNc1ncccn1` (stereo not given): the T/C was 97 % of control (dose: 60.0 mg/kg/injection, schedule: Q01DX005 (ip), vehicle: saline); 102 % of control (dose: 120.0 mg/kg/injection, schedule: Q01DX005 (ip), vehicle: saline); 99 % of control (dose: 240.0 mg/kg/injection, schedule: Q01DX005 (ip), vehicle: saline).
Regarding `O=C(O)CC12CC3CC(CC(C3)C1)C2`, the T/C under setting [1] is 102 % of control, the T/C under setting [6] is 103 % of control and the T/C under setting [7] is 102 % of control.
`CN1CCC/C1=C1/CCc2ccccc2C1=O`: the T/C by setting is: under setting [3], 103 % of control; under setting [4], 108 % of control; under setting [5], 107 % of control.
On to `CC1(C)C=Cc2c(ccc3c(=O)c(-c4ccccc4)coc23)O1`, for which the T/C by setting is: under setting [11], 94 % of control; under setting [12], 98 % of control; under setting [13], 93 % of control.
Take `Cc1cc(NC(=O)c2ccccc2O)n(-c2ccccc2)n1`: the T/C was 97 % of control (dose: 100.0 mg/kg/injection, schedule: Q01DX001 (ip), vehicle: saline with Tween-80); 100 % of control (dose: 200.0 mg/kg/injection, schedule: Q01DX001 (ip), vehicle: saline with Tween-80); 95 % of control (dose: 400.0 mg/kg/injection, schedule: Q01DX001 (ip), vehicle: saline with Tween-80).
For the compound `Nc1ncnc2c1ncn2C1OC(COC2C(CO)OC(OC(C(=O)O)C(O)C(OP(=O)(O)O)C(O)C(=O)O)C(O)C2O)C(O)C1O` (stereo not given), the T/C (dose: 0.25 mg/kg/injection, schedule: Q01DX009 (ip), vehicle: saline) was 96 % of control; the T/C (dose: 0.5 mg/kg/injection, schedule: Q01DX009 (ip), vehicle: saline) was 105 % of control; the T/C (dose: 1.0 mg/kg/injection, schedule: Q01DX009 (ip), vehicle: saline) is 96 % of control.
Regarding `c1ccc(-c2nnc3c4[nH]c5ccccc5c4cnn23)cc1`, the T/C is 105 % of control under setting [2]; 105 % of control (dose: 200.0 mg/kg/injection, schedule: Q01DX001 (ip), vehicle: Klucel (hydroxypropylcellulose) (HPC)); 99 % of control (dose: 400.0 mg/kg/injection, schedule: Q01DX001 (ip), vehicle: Klucel (hydroxypropylcellulose) (HPC)).
As for `CC(=O)OCC1OC(OC(C)=O)C(N(CCCl)CCCl)C(OC(C)=O)C1OC(C)=O` (stereo not given), the T/C reads like this: (dose: 0.31 mg/kg/injection, schedule: Q01DX005 (ip), vehicle: water) 151 % of control; (dose: 0.62 mg/kg/injection, schedule: Q01DX005 (ip), vehicle: water) 151 % of control; (dose: 1.25 mg/kg/injection, schedule: Q01DX005 (ip), vehicle: distilled water + Tween-80) 181 % of control; (dose: 1.25 mg/kg/injection, schedule: Q01DX005 (ip), vehicle: water) 177 % of control; (dose: 2.5 mg/kg/injection, schedule: Q01DX005 (ip), vehicle: distilled water + Tween-80) 216 % of control; (dose: 2.5 mg/kg/injection, schedule: Q01DX005 (ip), vehicle: water) 213 % of control. The T/C (dose: 5.0 mg/kg/injection, schedule: Q01DX005 (ip), vehicle: water) was 110 % of control.
Regarding `COc1cc(/C(C)=C\CP(=O)(c2ccccc2)c2ccccc2)c(C(=O)O)cc1C`, the T/C was 106 % of control (dose: 50.0 mg/kg/injection, schedule: Q01DX005 (ip), vehicle: saline with Tween-80); 106 % of control (dose: 100.0 mg/kg/injection, schedule: Q01DX005 (ip), vehicle: saline with Tween-80); 103 % of control (dose: 200.0 mg/kg/injection, schedule: Q01DX005 (ip), vehicle: saline with Tween-80).
Consider `COC(=O)/C1=C/CCC2=CC(CCC1)OC2=O` (stereo not given), for which the T/C runs as follows: (dose: 35.75 mg/kg/injection, schedule: Q01DX005 (ip), vehicle: Klucel (hydroxypropylcellulose) (HPC)) 103 % of control; (dose: 71.5 mg/kg/injection, schedule: Q01DX005 (ip), vehicle: Klucel (hydroxypropylcellulose) (HPC)) 99 % of control; (dose: 143.0 mg/kg/injection, schedule: Q01DX005 (ip), vehicle: Klucel (hydroxypropylcellulose) (HPC)) 97 % of control.
Regarding `COc1cc2c(cc1OC)C(C#N)(Cc1cccc3ccccc13)N(C(=O)c1ccccc1)C=C2` (stereo not given), the T/C under setting [11] is 99 % of control, the T/C under setting [12] was 101 % of control and the T/C under setting [13] is 99 % of control.
As to `CCCCC[CH2][Ge]([CH2]CCC)([CH2]CCC)[CH]1CCCCC1`, the T/C under setting [8] was 106 % of control, the T/C under setting [9] is 103 % of control and the T/C under setting [10] is 95 % of control.
Take `Cc1ccc(N=C2C(=O)Nc3ccccc32)cc1`: the T/C (dose: 50.0 mg/kg/injection, schedule: Q04DX002 (ip), vehicle: saline with Tween-80) is 108 % of control; the T/C (dose: 100.0 mg/kg/injection, schedule: Q04DX002 (ip), vehicle: saline with Tween-80) was 105 % of control; the T/C (dose: 200.0 mg/kg/injection, schedule: Q04DX002 (ip), vehicle: saline with Tween-80) was 104 % of control.
For the compound `COc1cccc2c1C(=O)c1c(O)c3c(c(O)c1C2=O)C[C@@](O)(c1csc(-c2ccncc2)n1)C[C@@H]3OC1CC(N)C(O)C(C)O1` (stereo not given in full), the T/C by setting is: (dose: 6.25 mg/kg/injection, schedule: Q04DX003 (ip), vehicle: water) 118 % of control; (dose: 12.5 mg/kg/injection, schedule: Q04DX003 (ip), vehicle: water) 122 % of control; (dose: 25.0 mg/kg/injection, schedule: Q04DX003 (ip), vehicle: water) 100 % of control; (dose: 50.0 mg/kg/injection, schedule: Q04DX003 (ip), vehicle: water) 118 % of control; (dose: 200.0 mg/kg/injection, schedule: Q04DX003 (ip), vehicle: water) 92 % of control.
For `CCc1cccc(C(C)C)c1NC1=C([n+]2ccc(C)cc2)C(=O)c2ccccc2C1=O`, the T/C under setting [11] is 117 % of control, the T/C under setting [12] is 106 % of control and the T/C under setting [13] is 119 % of control.
Take `COC(=O)C1=C(C(=O)OC)C2(c3ccccc3-c3ccccc32)C2C=CC=NN12` (stereo not given): the T/C under setting [3] is 100 % of control, the T/C under setting [4] is 103 % of control and the T/C under setting [5] is 100 % of control.

The values are drawn from PubChem BioAssay AID330 (DTP/NCI, 2004).
